Converted amounts (≈) assume the structure as drawn. “And” between values parts separate entries of the source, which are not always exact repeats. Equal entries are not always repeated. Where two headings read alike, the source gives them in different places.
Columns and labels:
[1] = test system: M. tuberculosis H37Rv; format: cell-based, Mycobacterium tuberculosis
[2] = test system: M. tuberculosis drug-resistant clinical isolates; test: microbe, parasite or virus in culture; format: cell-based; settings: Mycobacterium tuberculosis
[3] = test system: M. tuberculosis inhA promoter and coding sequence mutants; format: cell-based, Mycobacterium tuberculosis; settings: read-out: Liquid IC90
[4] = test system: M. tuberculosis inhA promoter and coding sequence mutants; settings: cited from earlier work
[5] = test system: M. tuberculosis; settings: cited from earlier work
[6] = test system: M. tuberculosis H37Rv-resistant mutants; format: cell-based, Mycobacterium tuberculosis; settings: read-out: Liquid media IC90
[7] = strains of Table 3, ref McNeil et al, 2017

Structure (SMILES): N#Cc1ccc(Oc2ccc3c(c2)COB3O)c(/C=N/O)c1 [AN3438]
- frequency of resistance [1]: 6.5 × 10^−7

Structure (SMILES): CCS(=O)(=O)N1N=Cc2ccc(Oc3ccc(C(F)(F)F)cc3/C=N/O)cc2B1O [AN12855]
- MIC ([2]; H37RV, read-out: MIC): 0.13 µg/mL (≈ 0.295 µM)
- MIC ([2]; read-out: MIC): 0.25 µg/mL (≈ 0.567 µM)
- IC90 [3]: 60 nM
- frequency of resistance [1]: 6.5 × 10^−7

Structure (SMILES): NNC(=O)c1ccncc1 [INH, isoniazid]
- IC90 ([4]; strain H37Rv (WT), ref McNeil et al (2017), read-out: Liquid IC90): 100 nM
- Liquid IC90 (fold shift versus WT) ([4]; strain LP-0532543-RM1, InhA S94A, ref McNeil et al (2017)): 2×
- Liquid IC90 (fold shift versus WT) ([4]; strain LP-0532543-RM2, InhA D148E, ref McNeil et al (2017)): 1×
- Liquid IC90 (fold shift versus WT) ([4]; strain LP-0532543-RM3, InhA A206E, ref McNeil et al (2017)): 1×
- Liquid IC90 (fold shift versus WT) ([4]; strain LP-0532543-RM4, InhA M161L, ref McNeil et al (2017)): 1×
- Liquid IC90 (fold shift versus WT) ([4]; strain LP-0532543-RM6, InhA M103T, ref McNeil et al (2017)): 1×
- Liquid IC90 (fold shift versus WT) ([4]; strain LP-0532543-RM7, InhA G205A, ref McNeil et al (2017)): 1×
- Liquid IC90 (fold shift versus WT) ([4]; strain LP-0532543-RM9, InhA I202F, ref McNeil et al (2017)): 1×
- Liquid IC90 (fold shift versus WT) ([4]; strain LP-0532543-RM11, InhA G205S, ref McNeil et al (2017)): 1×
- Liquid IC90 (fold shift versus WT) ([4]; strain LP-0532543-RM13, InhA F41L, ref McNeil et al (2017)): 1×
- Liquid IC90 (fold shift versus WT) ([4]; strain LP-0532543-RM14, InhA G212D, ref McNeil et al (2017)): 1×
- Liquid IC90 (fold shift versus WT) ([4]; strain LP-0532543-RM16, InhA I215S, ref McNeil et al (2017)): 1×
- Liquid IC90 (fold shift versus WT) ([4]; strain LP-0532543-RM18, InhA S19W, ref McNeil et al (2017)): 1×
- Liquid IC90 (fold shift versus WT) ([4]; strain LP-0532543-RM19, InhA I47L, ref McNeil et al (2017)): 1×
- Liquid IC90 (fold shift versus WT) ([4]; strain LP-0532543-RM28, InhA I21M, ref McNeil et al (2017)): 1×
- Liquid IC90 (fold shift versus WT) ([4]; strain LP-0532543-RM30, fabG1inhA promoter c-15t, ref McNeil et al (2017)): 5×
- Liquid IC90 (fold shift versus WT) ([4]; strain LP-0532543-RM34, InhA I21V, ref McNeil et al (2017)): 2×
- Liquid IC90 (fold shift versus WT) ([4]; strain LP-0532543-RM37, InhA L269R, ref McNeil et al (2017)): 1×
- Liquid IC90 (fold shift versus WT) ([4]; strain LP-0532543-RM41, InhA R195G, ref McNeil et al (2017)): 2×
- Liquid IC90 (fold shift versus WT) ([4]; strain LP-0532543-RM301, promoter c-15t, InhA N159K, ref McNeil et al (2017)): 3×
- Liquid IC90 (fold shift versus WT) ([4]; strain LP-0532543-RM304, promoter c-15t, InhA T162M, ref McNeil et al (2017)): 4×
- Liquid IC90 (fold shift versus WT) ([4]; strain LP-0532543-RM311, promoter c-15t, InhA M161V, ref McNeil et al (2017)): 5×
- Liquid IC90 (fold shift versus WT) ([4]; strain LP-0532543-RM313, promoter c-15t, InhA G205D, ref McNeil et al (2017)): 2×
- Liquid IC90 (fold shift versus WT) ([4]; strain LP-0532543-RM314, promoter c-15t, InhA I47M, ref McNeil et al (2017)): 5×
- Liquid IC90 (fold shift versus WT) ([4]; strain LP-0532543-RM318, promoter c-15t, InhA M199L, ref McNeil et al (2017)): 4×
- Liquid IC90 (fold shift versus WT) ([4]; strain LP-0532543-RM320, promoter c-15t, InhA G208D, ref McNeil et al (2017)): 4×
- Liquid IC90 (fold shift versus WT) ([4]; strain LP-0571426-RM24, InhA I194T, ref McNeil et al (2017)): 3×
- MIC ([2]; H37RV, read-out: MIC): < 0.06 µg/mL
- frequency of resistance [5]: 1 × 10^−5
- IC90 [6]: 300 nM and 100 nM and 400 nM

Structure (SMILES): CC1(C)CCC(Cc2cc(O)c(-c3ccccc3)c(=O)[nH]2)CC1 [NITD-916]
- resistance of inhA / fabG1inhA promoter mutant strains [4, 7]: resistant
- frequency of resistance ([5]; ref Manjunatha et al, 2015, Martínez-Hoyos et al, 2016): 1 × 10^−8

Structure (SMILES): CO[C@H]1/C=C/O[C@@]2(C)Oc3c(C)c(O)c4c(O)c(c(/C=N/N5CCN(C)CC5)c(O)c4c3C2=O)NC(=O)/C(C)=C\C=C\[C@H](C)[C@H](O)[C@@H](C)[C@@H](O)[C@@H](C)[C@H](OC(C)=O)[C@@H]1C [RIF, rifampicin]
- MIC [2]: > 16 µg/mL
- MIC ([2]; H37RV): < 0.06 µg/mL

Structure (SMILES): Oc1cc(Cl)ccc1Oc1ccc(Cl)cc1Cl [triclosan]
- cross-resistance of the mutants [4, 7]: None of the mutants demonstrated cross-resistance

Source: paper PMC6238539, “Discovery of a cofactor-independent inhibitor of Mycobacterium tuberculosis InhA” (Life Science Alliance, 2018)
